Results taken from ChEMBL document CHEMBL1201862, “PubChem BioAssay data set” (2004).
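48-hour exposure; five concentrations; linearly interpolated endpoints. GI50 = concentration required for 50% inhibition of growth.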 Activity calls are given as the source filed them. Rule as the data show it: active = GI50 up to about 1.1 µM and inactive = higher.

How the values were obtained:
Test in all cases: DTP human tumour cell line panel, 48 h
[1] = system: TK-10
[2] = system: Hs-578T
[3] = system: SF-295
[4] = system: CAKI-1
[5] = system: NCI-H226
[6] = system: PC-3
[7] = system: 786-0
[8] = system: KM12
[9] = system: COLO 205
[10] = system: CCRF-CEM
[11] = system: MDA-MB-435
[12] = system: UACC-257
[13] = system: SNB-19
[14] = system: HT-29
[15] = system: MCF7
[16] = system: LOX IMVI
[17] = system: M14
[18] = system: SW-620
[19] = system: RXF 393
[20] = system: MDA-N

Row | SMILES | GI50 [1] | GI50 [2] | GI50 [3] | GI50 [4] | GI50 [5] | GI50 [6] | GI50 [7] | GI50 [8] | GI50 [9] | GI50 [10] | GI50 [11] | GI50 [12] | GI50 [13] | GI50 [14] | GI50 [15] | GI50 [16] | GI50 [17] | GI50 [18] | GI50 [19] | GI50 [20]
1 | O[C@@H]1C[C@H]2N3CC[C@@]2(c2cc4c(cc2C3)OCO4)[C@H]2O[C@@H]12 | > 100 µM (inactive) | > 100 µM (inactive) | > 100 µM (inactive) | > 100 µM (inactive) | 0.0271 µM (active) | > 100 µM (inactive) | > 100 µM (inactive) | > 100 µM (inactive) | < 0.01 µM (active) | > 100 µM (inactive) | > 100 µM (inactive) | 90.4 µM (inactive) | > 100 µM (inactive) | > 100 µM (inactive) | > 100 µM (inactive) | > 100 µM (inactive) | > 100 µM (inactive) | > 100 µM (inactive) | > 100 µM (inactive) | > 100 µM (inactive)
2 | COc1c(Cl)c(=O)oc2ccc(Cl)cc12 | > 100 µM (inactive) | > 100 µM (inactive) | 53.2 µM (inactive) | > 100 µM (inactive) | > 100 µM (inactive) | > 100 µM (inactive) | > 100 µM (inactive) | > 100 µM (inactive) | > 100 µM (inactive) | > 100 µM (inactive) | > 100 µM (inactive) | > 100 µM (inactive) | > 100 µM (inactive) | > 100 µM (inactive) | > 100 µM (inactive) | > 100 µM (inactive) | > 100 µM (inactive) | > 100 µM (inactive) | > 100 µM (inactive) | > 100 µM (inactive)
3 | CN(CC(=O)O)Cc1c(O)c(Cl)cc(Cl)c1Cl | 37.8 µM (inactive) | > 100 µM (inactive) | 64.9 µM (inactive) | 61.8 µM (inactive) | 22.8 µM (inactive) | 41.4 µM (inactive) | 15.8 µM (inactive) | 31.2 µM (inactive) | 34.6 µM (inactive) | 5.13 µM (inactive) | 74.8 µM (inactive) | 19.8 µM (inactive) | 48.4 µM (inactive) | 33.2 µM (inactive) | 17.9 µM (inactive) | 14 µM (inactive) | 22.2 µM (inactive) | 40.5 µM (inactive) | 76.4 µM (inactive) | 47.2 µM (inactive)
4 | O=C1N/C(=N\C2CCCCC2)C2(CCN(CCCC3(c4ccc(F)cc4)OCCO3)CC2)N1c1ccccc1 | 15.7 µM (inactive) | 14.4 µM (inactive) | 19.9 µM (inactive) | 22.8 µM (inactive) | 23.1 µM (inactive) | 19.3 µM (inactive) | 16.6 µM (inactive) | 18 µM (inactive) | 18.5 µM (inactive) | 29 µM (inactive) | 19.1 µM (inactive) | 15.1 µM (inactive) | 18.5 µM (inactive) | 16.6 µM (inactive) | 21.2 µM (inactive) | 22.8 µM (inactive) | 19.4 µM (inactive) | 21.2 µM (inactive) | 17.3 µM (inactive) | 15.4 µM (inactive)
5 | CC(C)CCCC(=O)CCCCCCC(=O)CCN(O)C(=O)C(N)CO (stereo not given) | 14.7 µM (inactive) | 28.5 µM (inactive) | 18.3 µM (inactive) | 16 µM (inactive) | 14 µM (inactive) | 12.6 µM (inactive) | 16 µM (inactive) | 17.6 µM (inactive) | 23.7 µM (inactive) | 4.62 µM (inactive) | 25.8 µM (inactive) | 17.3 µM (inactive) | 22.5 µM (inactive) | 18.7 µM (inactive) | 19.8 µM (inactive) | 12.2 µM (inactive) | 20.2 µM (inactive) | 30.3 µM (inactive) | 11 µM (inactive) | 21.8 µM (inactive)
6 | CCCCCCCCCCCCCCCCCCNc1ccn(C2OC(COP(=O)(O)OCC3OC(n4ccc(NC(=O)CCCCCCCCCCCCCCCCC)nc4=O)C(OC(C)=O)C3OC(C)=O)C(OC(C)=O)C2OC(C)=O)c(=O)n1 (stereo not given) | > 100 µM (inactive) | > 100 µM (inactive) | > 100 µM (inactive) | > 100 µM (inactive) | > 100 µM (inactive) | > 100 µM (inactive) | > 100 µM (inactive) | > 100 µM (inactive) | > 100 µM (inactive) | > 100 µM (inactive) | > 100 µM (inactive) | > 100 µM (inactive) | > 100 µM (inactive) | > 100 µM (inactive) | > 100 µM (inactive) | > 100 µM (inactive) | > 100 µM (inactive) | > 100 µM (inactive) | > 100 µM (inactive) | > 100 µM (inactive)
7 | CCOC(=O)/C(=N\OC)C(O)C(F)(F)F (stereo not given) | > 100 µM (inactive) | > 100 µM (inactive) | > 100 µM (inactive) | > 100 µM (inactive) | > 100 µM (inactive) | > 100 µM (inactive) | > 100 µM (inactive) | > 100 µM (inactive) | > 100 µM (inactive) | > 100 µM (inactive) | > 100 µM (inactive) | > 100 µM (inactive) | > 100 µM (inactive) | > 100 µM (inactive) | > 100 µM (inactive) | > 100 µM (inactive) | > 100 µM (inactive) | > 100 µM (inactive) | > 100 µM (inactive) | > 100 µM (inactive)
8 | COc1cc2c(c(OC)c1OC)-c1ccc(SC)c(=O)cc1[C@@H](O)CC2 | > 1 µM (active) | 0.000261 µM (active) | 0.000225 µM (active) | 0.00166 µM (active) | 0.000703 µM (active) | 0.000353 µM (active) | 0.000834 µM (active) | 0.000234 µM (active) | 0.000408 µM (active) | 0.00031 µM (active) | 0.000122 µM (active) | 0.0252 µM (active) | 0.00104 µM (active) | 0.000294 µM (active) | 0.000386 µM (active) | 0.00078 µM (active) | 0.000333 µM (active) | 0.000333 µM (active) | 0.000317 µM (active) | 0.000121 µM (active)
9 | Cc1ccc(CSC(=N)Nc2ccccc2)cc1C | 28.5 µM (inactive) | 23.2 µM (inactive) | 25 µM (inactive) | 19.9 µM (inactive) | 20.9 µM (inactive) | 22.5 µM (inactive) | 19.3 µM (inactive) | 19.5 µM (inactive) | 16.3 µM (inactive) | 20.2 µM (inactive) | 15.2 µM (inactive) | 17.4 µM (inactive) | 23.7 µM (inactive) | 19.1 µM (inactive) | 18.7 µM (inactive) | 18.9 µM (inactive) | 19.1 µM (inactive) | 38.3 µM (inactive) | 15.7 µM (inactive) | 18.9 µM (inactive)
10 | NC(=O)[N+](=CC(=S)Nc1ccccc1Cl)C(N)=O | > 100 µM (inactive) | > 100 µM (inactive) | > 100 µM (inactive) | > 100 µM (inactive) | > 100 µM (inactive) | > 100 µM (inactive) | > 100 µM (inactive) | > 100 µM (inactive) | > 100 µM (inactive) | > 100 µM (inactive) | > 100 µM (inactive) | > 100 µM (inactive) | 71.4 µM (inactive) | > 100 µM (inactive) | > 100 µM (inactive) | > 100 µM (inactive) | > 100 µM (inactive) | > 100 µM (inactive) | > 100 µM (inactive) | > 100 µM (inactive)
